Results reported in patent US7442687B2, “2-polycyclic propynyl adenosine analogs having A2A agonist activity” (The University of Virginia Patent Foundation, priority 2004, dated 2008).
pEC50, pKi: −log10 of the molar value. Read-outs that look alike come from different tables or passages of the source.

What was measured:
human neutrophils = experiment: Human neutrophil oxidative activity, luminol-enhanced chemiluminescence (TNF-primed, fMLP-stimulated); assay type: cell-based; conditions: peak chemiluminescence
From the text: Chemiluminescence Methods: Luminol enhanced chemiluminescence, a measure of neutrophil oxidative activity, is dependent upon both superoxide production and mobilization of the granule enzyme myeloperoxidase. The light is emitted from unstable high-energy oxygen species such as hypochlorous acid and singlet oxygen generated by activated neutrophils.
Purified human neutrophils (2×10^6/ml) suspended in Hanks balanced salt solution containing 0.1% human serum albumin (HA), adenosine deaminase (1 U/mL) and rolipram (100 nM) were incubated (37° C.) in a water bath for 15 min with or without rhTNF(10 U/ml). Following incubation 100 µL aliquots of the PMN were transferred to wells (White walled clear bottom 96 well tissue culture plates Costar #3670; 2 wells/condition) containing […] and luminol (final concentration […]) with or without adenosine agonist (final agonist concentrations 0.01-1000 nM). The plate was incubated 5 min (37° C.) and then FMLP (501 in HA; final concentration […]) was added to all wells.
Peak chemiluminescence was determined with a Victor 1420 Multilabel Counter in the chemiluminescence mode using the Wallace Workstation software. Data are presented as peak chemiluminescence as percent of activity in the absence of an adenosine agonist. The EC50 was determined using PRISM software. All compounds were tested with PMNs from three separate donors.
Purified neutrophils (˜98% neutrophils and >95% viable by trypan blue exclusion) containing <1 platelet per 5 neutrophils and <50 pg/ml endotoxin (limulus amebocyte lysate assay) were obtained from normal heparinized (10 U/ml) venous blood by a one step Ficoll-hypaque separation procedure (A. Ferrante et al., J. Immunol. Meth., 36, 109 (1980)).
Luminol-enhanced chemiluminescence, a measure of neutrophil oxidative activity, is dependent upon both superoxide production and mobilization of the lysosomal granule enzyme myeloperoxidase. The light is emitted from unstable high-energy oxygen species generated by activated neutrophils. Purified neutrophils (5-10×10^5/ml) were incubated in Hanks balanced salt solution containing 0.1% human serum albumin (1 ml) with the tested A2A agonist with or without rolipram and with or without tumor necrosis factor-alpha (1 U/ml) for 30 minutes at 37° C. in a shaking water bath. Then luminol (1×10^−4 M) enhanced f-met-leu-phe (1 mcM) stimulated chemiluminescence was read with a Chronolog® Photometer (Crono-log Corp., Havertown, Pa.) at 37° C. for 2-4 minutes. Chemiluminescence is reported as relative peak light emitted (=height of the curve) compared to samples with tumor necrosis factor-alpha and without agonist or rolipram.

human A3 AR = biological target: T1, human A3 AR (Homo sapiens, UniProt P0DMS8); experiment: Radioligand binding (125I-ABA competition) to human A3 AR in HEK 293 cell membranes; conditions: read-out: Binding Affinity A3
T1 construct: expressed in transfected cells
T1 sequence (P0DMS8 1-318): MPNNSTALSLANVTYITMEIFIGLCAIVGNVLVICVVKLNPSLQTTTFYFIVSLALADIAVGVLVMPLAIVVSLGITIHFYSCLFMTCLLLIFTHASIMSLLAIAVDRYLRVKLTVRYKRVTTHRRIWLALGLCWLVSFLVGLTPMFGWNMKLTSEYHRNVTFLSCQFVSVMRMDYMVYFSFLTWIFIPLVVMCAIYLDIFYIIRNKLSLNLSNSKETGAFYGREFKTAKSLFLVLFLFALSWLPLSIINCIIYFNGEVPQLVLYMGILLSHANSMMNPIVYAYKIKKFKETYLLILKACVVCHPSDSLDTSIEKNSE
Procedure: (§1) Sf9 cells were cultured in Grace's medium supplemented with 10% fetal bovine serum, 2.5 μg/ml amphotericin B and 50 μg/ml gentamycin in an atmosphere of 50% N2/50% O2. Viral infection was performed at a density of 2.5×10^6 cells/mL with a multiplicity of infection of two for each virus used. Infected cells were harvested 3 days post-infection and washed twice in insect PBS (PBS pH 6.3). Cells were then resuspended in lysis buffer (20 mM HEPES pH 7.5, 150 mM NaCl, 3 mM MgCl2, 1 mM β-mercaptoethanol (BME), 5 μg/mL leupeptin, 5 μg/mL pepstatin A, 1 μg/mL aprotinin, and 0.1 mM PMSF) and snap frozen for storage at −80° C. Cells were thawed on ice, brought to 30 mL total volume in lysis buffer, and burst by N2 cavitation (600 psi for 20 minutes). A low-speed centrifugation was performed to remove any unlysed cells (1000×g for 10 minutes), followed by a high-speed centrifugation (17,000×g for 30 minutes). The pellet from the final centrifugation was homogenized in buffer containing 20 mM HEPES pH 8, 100 mM NaCl, 1% glycerol, 2 μg/mL leupeptin, 2 μg/mL pepstatin A, 2 μg/mL Aprotinin, 0.1 mM PMSF, and 10 μM GDP using a small glass homogenizer followed by passage through a 26 gauge needle. Membranes were aliquoted, snap frozen in liquid N2, and stored at −80° C. Membranes from cells stably expressing the human A1 AR (CHO K1 cells) or A3 AR (HEK 293 cells) were prepared as described (Robeva et al., 1996).
(§2) Radioligand binding to recombinant human A2A receptors in Sf9 cell membranes was performed using either the radio labeled agonist, ^125I-APE (Luthin et al., 1995) or the radio labeled antagonist, ^125I-ZM241385 (^1251-ZM). To detect the high affinity, GTPγS-sensitive state of A1 and A3 AR, we used the agonist, ^125I-ABA (Linden et al., 1985;Linden et al., 1993). Binding experiments were performed in triplicate with 5 μg (A2A) or 25 μg (A1 and A3) membrane protein in a total volume of 0.1 mL HE buffer (20 mM HEPES and 1 mM EDTA) with 1 U/mL adenosine deaminase and 5 mM MgCl2 with or without 50 μM GTPγS. Membranes were incubated with radioligands at room temperature for three hours (for agonists) or two hours (for antagonists) in Millipore Multiscreen® 96-well GF/C filter plates and assays were terminated by rapid filtration on a cell harvester (Brandel, Gaithersburg, Md.) followed by 4×150 μl washes over 30 seconds with ice cold 10 mM Tris-HCl, pH 7.4, 10 mM MgCl2. Nonspecific binding was measured in the presence of 50 μM NECA. Competition binding assays were performed as described (Robeva et al., 1996) using 0.5-1 nM ^125I-APE, ^125I-ZM241385, or ^125I-ABA. […] The Ki values for competing compound binding to a single site were derived from IC50 values with correction for radioligand and competing compound depletion as described previously (Linden, 1982).

[1] = biological target: T2, recombinant human A2A receptors (Homo sapiens, UniProt P29274); experiment: Radioligand binding to recombinant human A2A receptors in Sf9 cell membranes; conditions: recombinant human A2A receptor, 125I-APE or 125I-ZM241385, read-out: Binding Affinity A2A
T2 construct: expressed in transfected cells; host or cells: Sf9 insect cells, viral infection
Procedure: as §1, §2

human A1 AR = biological target: T3, human A1 AR (Homo sapiens, UniProt P30542); experiment: Radioligand binding (125I-ABA competition) to human A1 AR in CHO K1 cell membranes; conditions: read-out: Binding Affinity A1
T3 construct: expressed in transfected cells
T3 sequence (P30542 1-326): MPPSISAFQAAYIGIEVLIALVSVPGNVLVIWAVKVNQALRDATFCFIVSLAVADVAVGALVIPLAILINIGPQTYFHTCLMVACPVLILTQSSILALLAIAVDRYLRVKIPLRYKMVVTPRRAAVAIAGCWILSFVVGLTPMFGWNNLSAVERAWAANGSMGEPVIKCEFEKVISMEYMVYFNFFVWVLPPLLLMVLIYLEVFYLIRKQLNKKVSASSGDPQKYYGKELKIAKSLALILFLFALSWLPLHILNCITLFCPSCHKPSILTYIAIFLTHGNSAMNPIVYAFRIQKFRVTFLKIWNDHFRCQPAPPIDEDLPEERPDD
Procedure: as §1, §2

[2] = human neutrophil experiment with Rolipram, read-out: Functional + Roli
[3] = human neutrophil experiment without Rolipram, read-out: Functional

T2 sequence (P29274 whole entry): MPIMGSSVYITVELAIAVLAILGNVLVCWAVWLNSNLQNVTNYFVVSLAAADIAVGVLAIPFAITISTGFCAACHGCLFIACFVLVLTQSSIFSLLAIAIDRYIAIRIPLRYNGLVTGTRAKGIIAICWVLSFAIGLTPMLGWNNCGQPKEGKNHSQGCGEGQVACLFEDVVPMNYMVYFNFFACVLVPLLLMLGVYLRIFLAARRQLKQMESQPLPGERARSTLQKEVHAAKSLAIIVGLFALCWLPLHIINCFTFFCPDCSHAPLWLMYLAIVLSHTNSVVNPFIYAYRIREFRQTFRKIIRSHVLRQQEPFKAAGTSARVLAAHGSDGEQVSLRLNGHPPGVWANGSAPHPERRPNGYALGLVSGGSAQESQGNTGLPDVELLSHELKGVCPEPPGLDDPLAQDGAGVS

Structure (SMILES)	pEC50 (human neutrophils; [2])	pEC50 (human neutrophils; [3])	pKi (human A3 AR)	pKi [1]	pKi (human A1 AR)	pEC50 (human neutrophils; Homo sapiens, Neutrophil, human neutrophil experiment with Rolipram, read-out: Functional + Roli)	pEC50 (human neutrophils; Homo sapiens, Neutrophil, human neutrophil experiment without Rolipram, read-out: Functional)
Nc1nc(C#CC2(O)C3CC4CC(C3)CC2C4)nc2c1ncn2[C@@H]1O[C@H](CO)C(O)C1O (stereo in doubt) [Example 6, 2-[6-Amino-2-(2-hydroxy-adamantan-2-ylethynyl)-purin-9-yl]-5-hydroxymethyl-tetrahydro-furan-3,4-diol]	9.52	8.31	8.54	9.22	7.55		
CCNC(=O)[C@H]1O[C@@H](n2cnc3c(N)nc(C#CC4(O)C5CC6CC(C5)CC4C6)nc32)C(O)C1O (stereo in doubt) [Example 3, 5-[6-Amino-2-(2-hydroxy-adamantan-2-ylethynyl)-purin-9-yl]-3,4-dihydroxy-tetrahydro-furan-2-carboxylic acid ethylamide]			8.40	9.70	7.12	9.66	8.42
CCNC(=O)[C@H]1O[C@@H](n2cnc3c(N)nc(C#CC4(O)CC5CCC4C5)nc32)C(O)C1O (single isomer, unassigned) [Example 1, 5-[6-Amino-2-(2-hydroxy-bicyclo[2.2.1]hept-2-ylethynyl)-purin-9-yl]-3,4-dihydroxy-tetrahydro-furan-2-carboxylic acid ethylamide]	9.66	8.51	8.00	9.70	7.51		

Results, then the compound that gave them:

pEC50 (human neutrophils; [2])	pEC50 (human neutrophils; [3])	pKi (human A3 AR)	pKi [1]	pKi (human A1 AR)	pEC50 (human neutrophils; Homo sapiens, Neutrophil, human neutrophil experiment with Rolipram, read-out: Functional + Roli)	pEC50 (human neutrophils; Homo sapiens, Neutrophil, human neutrophil experiment without Rolipram, read-out: Functional)	Structure (SMILES)
9.55	8.60	8.31	9.15	8.59			CCNC(=O)[C@H]1O[C@@H](n2cnc3c(N)nc(C#CC4(O)CCCC5CCCCC54)nc32)C(O)C1O (stereo in doubt) [Example 5, 5-[6-Amino-2-(1-hydroxy-decahydro-naphthalen-1-ylethynyl)-purin-9-yl]-3,4-dihydroxy-tetrahydro-furan-2-carboxylic acid ethylamide]
8.43	7.60	7.55	8.19	8.14			CCNC(=O)[C@H]1O[C@@H](n2cnc3c(N)nc(C#CC4(O)CCCC5CCCCC54)nc32)C(O)C1O (stereo in doubt) [Example 4, 5-[6-Amino-2-(1-hydroxy-decahydro-naphthalen-1-ylethynyl)-purin-9-yl]-3,4-dihydroxy-tetrahydro-furan-2-carboxylic acid ethylamide]
10.24	9.30	8.52	9.52	7.96			CCNC(=O)[C@H]1O[C@@H](n2cnc3c(N)nc(C#CC4(O)CC5CCC4C5)nc32)C(O)C1O (single isomer, unassigned) [Example 2, 5-[6-Amino-2-(2-hydroxy-bicyclo[2.2.1]hept-2-ylethynyl)-purin-9-yl]-3,4-dihydroxy-tetrahydro-furan-2-carboxylic acid ethylamide]
